# Patent publication US7074447B2 (Laboratories Miret, S.A., priority 2001, dated 2006)
# How the values were obtained:
# Experiment in all cases: minimum inhibition concentration and Kull synergy index of LAE / potassium sorbate
# Type in all cases: cell-based
# [1] = test system: Candida albicans (ATCC 10231); conditions: for SI, synergy index: <1 synergism, 1 addition, >1 antagonism
# Description: The invention is now explained by a number of examples. In these examples LAE and sorbate alone and in a number of different combinations have been investigated against a number of bacterial preparations. For the analysis usually an internal method was used. […] The interaction of the two components of the antimicrobial mixture is calculated according to the method described by Kull et al. (Kull […]. and Mayer R. L., Applied Microbiology, 1961; 6:538-541). According to this method the so-called synergy index is calculated according to the following formula: Synergy index […]. […] The same method was used as described for example 1. […] Again the effects of the components alone and in combination have been calculated using the same method as described at Example 1.
# [2] = test system: Citrobacter intermedium (CECT 401); conditions: for SI, synergy index: <1 synergism, 1 addition, >1 antagonism
# Description: (§1) The invention is now explained by a number of examples. In these examples LAE and sorbate alone and in a number of different combinations have been investigated against a number of bacterial preparations. For the analysis usually an internal method was used. Conditions and medium were Mueller Hinton broth (pH 7.4) or (pH 5.0) for bacteria, Sabouraud broth (pH 5.8) for yeast and Sabouraud medium for moulds. The interaction of the two components of the antimicrobial mixture is calculated according to the method described by Kull et al. (Kull […]. and Mayer R. L., Applied Microbiology, 1961; 6:538-541). According to this method the so-called synergy index is calculated according to the following formula: Synergy index […]. […] The same method was used as described for example 1. […] Again the effects of the components alone and in combination have been calculated using the same method as described at Example 1.
# [3] = test system: Cladosporium cladosporioides (ATCC 16022); conditions: for SI, synergy index: <1 synergism, 1 addition, >1 antagonism
# Description: as §1
# [4] = test system: Enterobacter aerogenes (ATCC 13048); conditions: for SI, synergy index: <1 synergism, 1 addition, >1 antagonism
# Description: as §1
# [5] = test system: Escherichia coli (ATCC 8739); conditions: for SI, synergy index: <1 synergism, 1 addition, >1 antagonism
# Description: as §1
# [6] = test system: Penicillium camemberti (CECT 2267); conditions: for SI, synergy index: <1 synergism, 1 addition, >1 antagonism
# Description: as §1
# [7] = test system: Staphylococcus aureus (ATCC 6538); conditions: for SI, synergy index: <1 synergism, 1 addition, >1 antagonism
# Description: (§2) The invention is now explained by a number of examples. In these examples LAE and sorbate alone and in a number of different combinations have been investigated against a number of bacterial preparations. For the analysis usually an internal method was used. Conditions and medium were Mueller Hinton broth (pH 7.4) or (pH 5.0) for bacteria, Sabouraud broth (pH 5.8) for yeast and Sabouraud medium for moulds. The interaction of the two components of the antimicrobial mixture is calculated according to the method described by Kull et al. (Kull […]. and Mayer R. L., Applied Microbiology, 1961; 6:538-541). According to this method the so-called synergy index is calculated according to the following formula: Synergy index […]. […] Again the effects of the components alone and in combination have been calculated using the same method as described at Example 1.
# [8] = test system: Bacillus megaterium (CECT 44); conditions: pH 7.4, aqueous solutions
# Description: as §2
# [9] = test system: Bacillus subtilis (CECT 356); conditions: for SI, synergy index: <1 synergism, 1 addition, >1 antagonism
# Description: The invention is now explained by a number of examples. In these examples LAE and sorbate alone and in a number of different combinations have been investigated against a number of bacterial preparations. For the analysis usually an internal method was used. Conditions and medium were Mueller Hinton broth (pH 7.4) or (pH 5.0) for bacteria, Sabouraud broth (pH 5.8) for yeast and Sabouraud medium for moulds. […] The interaction of the two components of the antimicrobial mixture is calculated according to the method described by Kull et al. (Kull […]. and Mayer R. L., Applied Microbiology, 1961; 6:538-541). According to this method the so-called synergy index is calculated according to the following formula: Synergy index […]. […] All indicated symbols indicate a particular concentration leading to a particular end point, in this case the inhibition of growth of Bacillus subtilis, so that the selected end point is in fact the minimal inhibitory concentration (mic).
# [10] = pH 7.4, propylene glycol solutions
smiles,measurement,setting,value
C/C=C/C=C/C(=O)[O-].[K+] [potassium sorbate],"QS, minimum inhibition concentration of potassium sorbate as single antimicrobial",[1]; pH 5.0,1024
same,"Qlae, minimum inhibition concentration of LAE in the mixture",[1]; pH 5.0,0
same,Qlae/QLAE,[1]; pH 5.0,0
same,"Qs, minimum inhibition concentration of potassium sorbate in the mixture",[1]; pH 5.0,1024.00
same,Qs/QS,[1]; pH 5.0,1.00
same,"SI, synergy index",[1]; pH 5.0,1.00
same,"QS, minimum inhibition concentration of potassium sorbate as single antimicrobial","[1]; pH 7.4, aqueous solutions",1024
same,"Qlae, minimum inhibition concentration of LAE in the mixture","[1]; pH 7.4, aqueous solutions",0
same,Qlae/QLAE,"[1]; pH 7.4, aqueous solutions",0
same,"Qs, minimum inhibition concentration of potassium sorbate in the mixture","[1]; pH 7.4, aqueous solutions",1024.00
same,Qs/QS,"[1]; pH 7.4, aqueous solutions",1.00
same,"SI, synergy index","[1]; pH 7.4, aqueous solutions",1.00
same,"QS, minimum inhibition concentration of potassium sorbate as single antimicrobial",[2]; pH 5.0,512
same,"Qlae, minimum inhibition concentration of LAE in the mixture",[2]; pH 5.0,0
same,Qlae/QLAE,[2]; pH 5.0,0
same,"Qs, minimum inhibition concentration of potassium sorbate in the mixture",[2]; pH 5.0,1024.00
same,Qs/QS,[2]; pH 5.0,1.00
same,"SI, synergy index",[2]; pH 5.0,1.00
same,"QS, minimum inhibition concentration of potassium sorbate as single antimicrobial","[2]; pH 7.4, aqueous solutions",1536
same,"Qlae, minimum inhibition concentration of LAE in the mixture","[2]; pH 7.4, aqueous solutions",0
same,Qlae/QLAE,"[2]; pH 7.4, aqueous solutions",0
same,"Qs, minimum inhibition concentration of potassium sorbate in the mixture","[2]; pH 7.4, aqueous solutions",1536
same,Qs/QS,"[2]; pH 7.4, aqueous solutions",1.00
same,"SI, synergy index","[2]; pH 7.4, aqueous solutions",1.00
same,"QS, minimum inhibition concentration of potassium sorbate as single antimicrobial",[3]; pH 5.0,1024
same,"Qlae, minimum inhibition concentration of LAE in the mixture",[3]; pH 5.0,0
same,Qlae/QLAE,[3]; pH 5.0,0
same,"Qs, minimum inhibition concentration of potassium sorbate in the mixture",[3]; pH 5.0,1024.00
same,Qs/QS,[3]; pH 5.0,1.00
same,"SI, synergy index",[3]; pH 5.0,1.00
same,"QS, minimum inhibition concentration of potassium sorbate as single antimicrobial","[3]; pH 7.4, aqueous solutions",1024
same,"Qlae, minimum inhibition concentration of LAE in the mixture","[3]; pH 7.4, aqueous solutions",0
same,Qlae/QLAE,"[3]; pH 7.4, aqueous solutions",0.00
same,"Qs, minimum inhibition concentration of potassium sorbate in the mixture","[3]; pH 7.4, aqueous solutions",1024
same,Qs/QS,"[3]; pH 7.4, aqueous solutions",1.00
same,"SI, synergy index","[3]; pH 7.4, aqueous solutions",1.00
same,"QS, minimum inhibition concentration of potassium sorbate as single antimicrobial",[4]; pH 5.0,1024
same,"Qlae, minimum inhibition concentration of LAE in the mixture",[4]; pH 5.0,0
same,Qlae/QLAE,[4]; pH 5.0,0
same,"Qs, minimum inhibition concentration of potassium sorbate in the mixture",[4]; pH 5.0,1024.00
same,Qs/QS,[4]; pH 5.0,1.00
same,"SI, synergy index",[4]; pH 5.0,1.00
same,"QS, minimum inhibition concentration of potassium sorbate as single antimicrobial","[4]; pH 7.4, aqueous solutions",1536
same,"Qlae, minimum inhibition concentration of LAE in the mixture","[4]; pH 7.4, aqueous solutions",0
same,"Qs, minimum inhibition concentration of potassium sorbate in the mixture","[4]; pH 7.4, aqueous solutions",1536
same,Qs/QS,"[4]; pH 7.4, aqueous solutions",1.00
same,"SI, synergy index","[4]; pH 7.4, aqueous solutions",1.00
same,"QS, minimum inhibition concentration of potassium sorbate as single antimicrobial",[5]; pH 5.0,1024
same,"Qlae, minimum inhibition concentration of LAE in the mixture",[5]; pH 5.0,0
same,Qlae/QLAE,[5]; pH 5.0,0
same,"Qs, minimum inhibition concentration of potassium sorbate in the mixture",[5]; pH 5.0,1024.00
same,Qs/QS,[5]; pH 5.0,1.00
same,"SI, synergy index",[5]; pH 5.0,1.00
same,"QS, minimum inhibition concentration of potassium sorbate as single antimicrobial","[5]; pH 7.4, aqueous solutions",1536
same,"Qlae, minimum inhibition concentration of LAE in the mixture","[5]; pH 7.4, aqueous solutions",0
same,Qlae/QLAE,"[5]; pH 7.4, aqueous solutions",0
same,"Qs, minimum inhibition concentration of potassium sorbate in the mixture","[5]; pH 7.4, aqueous solutions",1536
same,Qs/QS,"[5]; pH 7.4, aqueous solutions",1.00
same,"SI, synergy index","[5]; pH 7.4, aqueous solutions",1.00
same,"QS, minimum inhibition concentration of potassium sorbate as single antimicrobial",[6]; pH 5.0,1024
same,"Qlae, minimum inhibition concentration of LAE in the mixture",[6]; pH 5.0,0
same,Qlae/QLAE,[6]; pH 5.0,0
same,"Qs, minimum inhibition concentration of potassium sorbate in the mixture",[6]; pH 5.0,1024.00
same,Qs/QS,[6]; pH 5.0,1.00
same,"SI, synergy index",[6]; pH 5.0,1.00
same,"QS, minimum inhibition concentration of potassium sorbate as single antimicrobial","[6]; pH 7.4, aqueous solutions",2048
same,"Qlae, minimum inhibition concentration of LAE in the mixture","[6]; pH 7.4, aqueous solutions",0
same,Qlae/QLAE,"[6]; pH 7.4, aqueous solutions",0
same,"Qs, minimum inhibition concentration of potassium sorbate in the mixture","[6]; pH 7.4, aqueous solutions",2048
same,Qs/QS,"[6]; pH 7.4, aqueous solutions",1.00
same,"SI, synergy index","[6]; pH 7.4, aqueous solutions",1.00
same,"QS, minimum inhibition concentration of potassium sorbate as single antimicrobial",[7]; pH 5.0,1024
same,"Qlae, minimum inhibition concentration of LAE in the mixture",[7]; pH 5.0,0
same,Qlae/QLAE,[7]; pH 5.0,0
same,"Qs, minimum inhibition concentration of potassium sorbate in the mixture",[7]; pH 5.0,1024.00
same,Qs/QS,[7]; pH 5.0,1.00
same,"SI, synergy index",[7]; pH 5.0,1.00
same,"QS, minimum inhibition concentration of potassium sorbate as single antimicrobial","[7]; pH 7.4, aqueous solutions",1536
same,"Qlae, minimum inhibition concentration of LAE in the mixture","[7]; pH 7.4, aqueous solutions",0
same,Qlae/QLAE,"[7]; pH 7.4, aqueous solutions",0.0
same,"Qs, minimum inhibition concentration of potassium sorbate in the mixture","[7]; pH 7.4, aqueous solutions",1536
same,Qs/QS,"[7]; pH 7.4, aqueous solutions",1.00
same,"SI, synergy index","[7]; pH 7.4, aqueous solutions",1.00
same,"QS, minimum inhibition concentration of potassium sorbate as single antimicrobial",[8],1024
same,"Qlae, minimum inhibition concentration of LAE in the mixture",[8],0
same,Qlae/QLAE,[8],0
same,"Qs, minimum inhibition concentration of potassium sorbate in the mixture",[8],1024
same,Qs/QS,[8],1.00
same,"SI, synergy index","[8]; <1 synergism, 1 addition, >1 antagonism",1.00
same,"QS, minimum inhibition concentration of potassium sorbate as single antimicrobial",[9]; pH 5.0,1024
same,"Qlae, minimum inhibition concentration of LAE in the mixture",[9]; pH 5.0,0
same,Qlae/QLAE,[9]; pH 5.0,0
same,"Qs, minimum inhibition concentration of potassium sorbate in the mixture",[9]; pH 5.0,1024.00
same,Qs/QS,[9]; pH 5.0,1.00
same,"SI, synergy index",[9]; pH 5.0,1.00
same,"QS, minimum inhibition concentration of potassium sorbate as single antimicrobial",[9]; [10],1024
same,"Qlae, minimum inhibition concentration of LAE in the mixture",[9]; [10],0
same,Qlae/QLAE,[9]; [10],0
same,"Qs, minimum inhibition concentration of potassium sorbate in the mixture",[9]; [10],1024
same,Qs/QS,[9]; [10],1.00
same,"SI, synergy index",[9]; [10],1.00
